Laboratory results as given in US11230526B1, “Cylcoalkenyl derivatives useful as agonists of the GPR120 and/or GPR40 receptors” (Janssen Pharmaceutica NV, priority 2018, dated 2022).

Experiments:
Type in all cases: cell-based
Human GPR120 short form [1] = biological target: T1, Human GPR120 short form (Homo sapiens, UniProt Q5NUL3); assay: Human GPR120 calcium flux assay, Procedure Calcium A (2500 cells/well)
T1 construct: expressed in transfected cells
T1 sequence (Q5NUL3 1-361): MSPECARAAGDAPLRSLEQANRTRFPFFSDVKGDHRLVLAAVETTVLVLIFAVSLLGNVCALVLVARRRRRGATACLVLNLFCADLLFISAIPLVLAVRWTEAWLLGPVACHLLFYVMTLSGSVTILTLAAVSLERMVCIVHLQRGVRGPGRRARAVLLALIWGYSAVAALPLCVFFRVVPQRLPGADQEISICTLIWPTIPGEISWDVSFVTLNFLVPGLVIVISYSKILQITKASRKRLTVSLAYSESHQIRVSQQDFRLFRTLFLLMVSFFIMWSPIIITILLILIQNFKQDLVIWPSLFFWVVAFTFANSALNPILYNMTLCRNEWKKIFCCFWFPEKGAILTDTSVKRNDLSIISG
Outline: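 HEK293 cells stably expressing human GPR120 short isoform (NM_001195755.1), 2500 cells/well, serum-starved 1 h at 37 °C and loaded with Fluo-4 NW plus probenecid. FLIPR fluorescence read for 300 s after compound addition; response = Fmax−Fmin. EC50 from four-parameter concentration–response fit.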

Human GPR120 short form [2] = biological target: T1, Human GPR120 short form; assay: Human GPR120 calcium flux assay, Procedure Calcium B (4200 cells/well)
Outline: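 HEK293 cells stably expressing human GPR120 (NM_001195755.1), 4200 cells/well, starved 1 h and loaded with Fluo-4 NW plus probenecid. Ligand-evoked calcium flux read on FLIPR for 300 s after a 10 s baseline. RFU = Fmax−Fmin; EC50 from four-parameter concentration-response fit.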

human GPR40 = biological target: T2, human GPR40 (Homo sapiens, UniProt O14842); assay: GPR40 calcium flux assay, human GPR40; conditions: HEK293 cells stably expressing GPR40; table does not say human or rat
T2 construct: expressed in transfected cells
T2 sequence (O14842 whole entry): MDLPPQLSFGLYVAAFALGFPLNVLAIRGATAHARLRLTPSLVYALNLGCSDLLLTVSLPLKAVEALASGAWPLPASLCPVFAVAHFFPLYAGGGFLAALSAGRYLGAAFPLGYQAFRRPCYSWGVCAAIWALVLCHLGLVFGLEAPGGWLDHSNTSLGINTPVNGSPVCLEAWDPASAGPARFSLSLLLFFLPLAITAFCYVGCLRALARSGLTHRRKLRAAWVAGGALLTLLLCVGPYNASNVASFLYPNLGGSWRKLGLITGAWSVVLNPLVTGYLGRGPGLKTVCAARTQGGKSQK
Outline: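 Cells preincubated 1 h at 37° C. in HBSS, 20 mM HEPES, 0.1% BSA, then Fluo 8 calcium dye 30 min at 37° C. and 15 min at room temperature.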

Structure (SMILES): Cc1c(CCC(=O)O)ccc(OCC2=C(c3ccc(F)cc3)CCC2)c1C [Compound 4, 3-[4-[[2-(4-fluorophenyl)cyclopenten-1-yl]methoxy]-2,3-dimethyl-phenyl]Propanoic Acid]
- EC50 (Human GPR120 short form [1]): 0.294 µM
- EC50 (Human GPR120 short form [2]): 0.044 µM
- EC50 (human GPR40): > 5 µM

Structure (SMILES): Cc1c(CCC(=O)O)ccc(OCC2=C(c3ccc(Cl)cc3)CCC2)c1C [Compound 15, 3-(4-((2-(4-chlorophenyl)cyclopent-1-en-1-yl)methoxy)-2,3-dimethylphenyl)Propanoic Acid]
- EC50 (Human GPR120 short form [1]): 0.206 µM
- EC50 (Human GPR120 short form [2]): 0.07 µM
- EC50 (human GPR40): > 5 µM

Structure (SMILES): CCc1ccc(C2=C(COc3c(F)cc(CCC(=O)O)cc3F)CCC2)cc1 [Compound 16, 3-(4-((2-(4-ethylphenyl)cyclopent-1-en-1-yl)methoxy)-3,5-difluorophenyl)Propanoic Acid]
- EC50 (Human GPR120 short form [1]): 0.198 µM
- EC50 (Human GPR120 short form [2]): 0.049 µM
- EC50 (human GPR40): > 5 µM

Structure (SMILES): Cc1c(CCC(=O)O)ccc(OCC2=C(c3ccc(OC(F)(F)F)cc3)CCC2)c1C [Compound 20, 3-(2,3-dimethyl-4-((2-(4-(trifluoromethoxy)phenyl)cyclopent-1-en-1-yl)methoxy)phenyl)Propanoic Acid]
- EC50 (Human GPR120 short form [1]): > 20 µM
- EC50 (human GPR40): > 5 µM

Structure (SMILES): Cc1c(CCC(=O)O)ccc(OCC2=C(c3ccccc3)CCC2)c1C [Compound 23, 3-(2,3-dimethyl-4-((2-phenylcyclopent-1-en-1-yl)methoxy)phenyl)Propanoic Acid]
- EC50 (Human GPR120 short form [1]): 0.301 µM
- EC50 (Human GPR120 short form [2]): 0.114 µM
- EC50 (human GPR40): > 5 µM

Structure (SMILES): CCc1ccc(C2=C(COc3ccc(CCC(=O)O)c(F)c3F)CCC2)cc1 [Compound 25, 3-(4-((2-(4-ethylphenyl)cyclopent-1-en-1-yl)methoxy)-2,3-difluorophenyl)Propanoic Acid]
- EC50 (Human GPR120 short form [1]): 0.129 µM
- EC50 (human GPR40): > 5 µM

Structure (SMILES): CCc1ccc(C2=C(COc3ccc(CCC(=O)O)c(C)c3C)CCC2)cc1 [Compound 27, 3-(4-((2-(4-ethylphenyl)cyclopent-1-en-1-yl)methoxy)-2,3-dimethylphenyl)Propanoic Acid]
- EC50 (Human GPR120 short form [1]): 0.256 µM
- EC50 (Human GPR120 short form [2]): 0.058 µM
- EC50 (human GPR40): > 5 µM

Structure (SMILES): O=C(O)CCc1ccc(OCC2=C(c3ccc(Cl)cc3)CCC2)cc1F [Compound 47, 3-[4-[[2-(4-chlorophenyl)cyclopenten-1-yl]methoxy]-2-fluoro-phenyl]Propanoic Acid]
- EC50 (Human GPR120 short form [1]): 0.582 µM
- EC50 (Human GPR120 short form [2]): 0.103 µM
- EC50 (human GPR40): 0.932 µM

Structure (SMILES): Cc1ccc(C2=C(COc3ccc(CCC(=O)O)c(C)c3C)CCC2)cc1 [Compound 52, 3-[2,3-dimethyl-4-[[2-(p-tolyl)cyclopenten-1-yl]methoxy]phenyl]Propanoic Acid]
- EC50 (Human GPR120 short form [1]): 0.173 µM
- EC50 (Human GPR120 short form [2]): 0.024 µM
- EC50 (human GPR40): > 10 µM

Structure (SMILES): Cc1c(CCC(=O)O)ccc(OCC2=C(c3cccc(Cl)c3)CCC2)c1C [Compound 58, 3-[4-[[2-(3-chlorophenyl)cyclopenten-1-yl]methoxy]-2,3-dimethyl-phenyl]Propanoic Acid]
- EC50 (Human GPR120 short form [1]): 0.546 µM
- EC50 (Human GPR120 short form [2]): 0.159 µM
- EC50 (human GPR40): > 10 µM

Structure (SMILES): O=C(O)CCc1cc(F)c(OCC2=C(c3ccc(Cl)cc3)CCC2)c(F)c1 [Compound 60, 3-[4-[[2-(4-chlorophenyl)cyclopenten-1-yl]methoxy]-3,5-difluoro-phenyl]Propanoic Acid]
- EC50 (Human GPR120 short form [1]): 0.55 µM
- EC50 (Human GPR120 short form [2]): 0.103 µM
- EC50 (human GPR40): > 5 µM

Structure (SMILES): Cc1cc(CCC(=O)O)ccc1OCC1=C(c2ccc(Cl)cc2)CCC1 [Compound 62, 3-[4-[[2-(4-chlorophenyl)cyclopenten-1-yl]methoxy]-3-methyl-phenyl]Propanoic Acid]
- EC50 (Human GPR120 short form [1]): 0.136 µM
- EC50 (Human GPR120 short form [2]): 0.027 µM
- EC50 (human GPR40): > 5 µM

Structure (SMILES): COc1cc(F)cc(C2=C(COc3ccc(CCC(=O)O)c(C)c3C)CCC2)c1 [Compound 65, 3-[4-[[2-(3-fluoro-5-methoxy-phenyl)cyclopenten-1-yl]methoxy]-2,3-dimethyl-phenyl]Propanoic Acid]
- EC50 (Human GPR120 short form [1]): 2.49 µM
- EC50 (Human GPR120 short form [2]): 0.614 µM
- EC50 (human GPR40): > 5 µM

Structure (SMILES): Cc1c(CCC(=O)O)ccc(OCC2=C(c3ccc(Cl)c(Cl)c3)CCC2)c1C [Compound 66, 3-[4-[[2-(3,4-dichlorophenyl)cyclopenten-1-yl]methoxy]-2,3-dimethyl-phenyl]Propanoic Acid]
- EC50 (Human GPR120 short form [1]): 0.658 µM
- EC50 (Human GPR120 short form [2]): 0.205 µM
- EC50 (human GPR40): > 5 µM

Structure (SMILES): O=C(O)CCc1ccc(OCC2=C(c3ccc(Cl)cc3)CCC2)c(F)c1F [Compound 70, 3-[4-[[2-(4-chlorophenyl)cyclopenten-1-yl]methoxy]-2,3-difluoro-phenyl]Propanoic Acid]
- EC50 (Human GPR120 short form [1]): 0.344 µM
- EC50 (Human GPR120 short form [2]): 0.023 µM
- EC50 (human GPR40): > 5 µM

Structure (SMILES): Cc1ccc(C2=C(COc3ccc(CCC(=O)O)c(F)c3F)CCC2)c(C)c1 [Compound 72, 3-(4-((2-(2,4-dimethylphenyl)cyclopent-1-en-1-yl)methoxy)-2,3-difluorophenyl)Propanoic Acid]
- EC50 (Human GPR120 short form [1]): 0.658 µM
- EC50 (Human GPR120 short form [2]): 0.245 µM
- EC50 (human GPR40): > 5 µM

Structure (SMILES): Cc1c(CCC(=O)O)ccc(OCC2=C(c3ccccc3Cl)CCC2)c1C [Compound 76, 3-[4-[[2-(2-chlorophenyl)cyclopenten-1-yl]methoxy]-2,3-dimethyl-phenyl]Propanoic Acid]
- EC50 (Human GPR120 short form [1]): 0.542 µM
- EC50 (Human GPR120 short form [2]): 0.136 µM
- EC50 (human GPR40): > 10 µM

Structure (SMILES): Cc1c(CCC(=O)O)ccc(OCC2=C(c3cccs3)CCC2)c1C [Compound 77, 3-[2,3-dimethyl-4-[[2-(2-thienyl)cyclopenten-1-yl]methoxy]phenyl]Propanoic Acid]
- EC50 (Human GPR120 short form [1]): 0.508 µM
- EC50 (Human GPR120 short form [2]): 0.122 µM
- EC50 (human GPR40): > 10 µM

Structure (SMILES): Cc1ccc(C2=C(COc3ccc(CCC(=O)O)c(F)c3F)CCC2)cc1F [Compound 78, 3-(2,3-difluoro-4-((2-(3-fluoro-4-methylphenyl)cyclopent-1-en-1-yl)methoxy)phenyl)Propanoic Acid]
- EC50 (Human GPR120 short form [1]): 0.094 µM
- EC50 (Human GPR120 short form [2]): 0.034 µM
- EC50 (human GPR40): > 5 µM

Structure (SMILES): Cc1c(CCC(=O)O)ccc(OCC2=C(c3nccs3)CCC2)c1C [Compound 79, 3-[2,3-dimethyl-4-[(2-thiazol-2-ylcyclopenten-1-yl)methoxy]phenyl]Propanoic Acid]
- EC50 (Human GPR120 short form [1]): 0.76 µM
- EC50 (Human GPR120 short form [2]): 0.192 µM
- EC50 (human GPR40): > 5 µM

Structure (SMILES): Cc1ccc(C2=C(COc3ccc(CCC(=O)O)c(C)c3C)CCC2)cc1F [Compound 80, 3-(4-((2-(3-fluoro-4-methylphenyl)cyclopent-1-en-1-yl)methoxy)-2,3-dimethylphenyl)Propanoic Acid]
- EC50 (Human GPR120 short form [1]): 0.081 µM
- EC50 (Human GPR120 short form [2]): 0.019 µM
- EC50 (human GPR40): > 5 µM

Structure (SMILES): Cc1ccc(C2=C(COc3ccc(CCC(=O)O)c(C)c3C)CCC2)c(C)c1 [Compound 82]
- EC50 (Human GPR120 short form [1]): 0.372 µM
- EC50 (Human GPR120 short form [2]): 0.242 µM
- EC50 (human GPR40): > 5 µM

Structure (SMILES): Cc1ccc(C2=C(COc3ccc(CCC(=O)O)c(F)c3F)CCC2)cc1C [Compound 83, 3-(4-((2-(3,4-dimethylphenyl)cyclopent-1-en-1-yl)methoxy)-2,3-difluorophenyl)Propanoic Acid]
- EC50 (Human GPR120 short form [1]): 0.59 µM
- EC50 (Human GPR120 short form [2]): 0.143 µM
- EC50 (human GPR40): > 5 µM

Structure (SMILES): Cc1ccc(C2=C(COc3c(F)cc(CCC(=O)O)cc3F)CCC2)cc1C [Compound 84, 3-(4-((2-(3,4-dimethylphenyl)cyclopent-1-en-1-yl)methoxy)-3,5-difluorophenyl)Propanoic Acid]
- EC50 (Human GPR120 short form [1]): 1.74 µM
- EC50 (Human GPR120 short form [2]): 0.29 µM
- EC50 (human GPR40): > 5 µM

Structure (SMILES): Cc1ccc(C2=C(COc3ccc(CCC(=O)O)c(C)c3C)CCC2)cn1 [Compound 85, 3-(2,3-dimethyl-4-((2-(6-methylpyridin-3-yl)cyclopent-1-en-1-yl)methoxy)phenyl)Propanoic Acid]
- EC50 (Human GPR120 short form [1]): 0.605 µM
- EC50 (Human GPR120 short form [2]): 0.234 µM
- EC50 (human GPR40): > 5 µM

Structure (SMILES): Cc1c(CCC(=O)O)ccc(OCC2=C(c3cncs3)CCC2)c1C [Compound 88, 3-[2,3-dimethyl-4-[(2-thiazol-5-ylcyclopenten-1-yl)methoxy]phenyl]Propanoic Acid]
- EC50 (Human GPR120 short form [1]): 0.461 µM
- EC50 (Human GPR120 short form [2]): 0.233 µM
- EC50 (human GPR40): > 5 µM

Structure (SMILES): Cc1ccc(C2=C(COc3ccc(CCC(=O)O)c(F)c3F)CCC2)cc1N [Compound 93, 3-(4-((2-(3-amino-4-methylphenyl)cyclopent-1-en-1-yl)methoxy)-2,3-difluorophenyl)Propanoic Acid]
- EC50 (Human GPR120 short form [1]): 0.427 µM
- EC50 (Human GPR120 short form [2]): 0.643 µM
- EC50 (human GPR40): > 5 µM

Structure (SMILES): Cc1ccc(C2=C(COc3ccc(CCC(=O)O)c(F)c3F)CCC2)cc1 [Compound 94, 3-(2,3-difluoro-4-((2-(p-tolyl)cyclopent-1-en-1-yl)methoxy)phenyl)Propanoic Acid]
- EC50 (Human GPR120 short form [1]): 0.4 µM
- EC50 (Human GPR120 short form [2]): 0.023 µM
- EC50 (human GPR40): > 5 µM

Structure (SMILES): Cc1ccc(C2=C(COc3c(F)cc(CCC(=O)O)cc3F)CCC2)cc1 [Compound 95, 3-(3,5-difluoro-4-((2-(p-tolyl)cyclopent-1-en-1-yl)methoxy)phenyl)Propanoic Acid]
- EC50 (Human GPR120 short form [1]): 0.378 µM
- EC50 (Human GPR120 short form [2]): 0.032 µM
- EC50 (human GPR40): > 5 µM

Structure (SMILES): Cc1c(CCC(=O)O)ccc(OCC2=C(c3ccc(Cl)cc3)CC(F)(F)C2)c1C [Compound 137, 3-[4-[[2-(4-chlorophenyl)-4,4-difluoro-cyclopenten-1-yl]methoxy]-2,3-dimethyl-phenyl]Propanoic Acid]
- EC50 (Human GPR120 short form [2]): 0.065 µM
- EC50 (human GPR40): > 5 µM
